Laboratory results published in patent US8829029B2, “Dual modulators of 5HT2A and D3 receptors” (Hoffmann-La Roche Inc., priority 2008, dated 2014).

Experiments:
[1] = target: human 5-HT2A serotonin receptor (Homo sapiens (Human), UniProt P28223); assay: Radioligand binding ([3H]-ketanserin) to cloned human 5-HT2A receptor expressed in HEK-293 EBNA cells; details: membranes of transfected HEK-293 EBNA cells, 1.1 nM [3H]-ketanserin, 1 h at RT
Protocol: The ability of the compounds to bind to the 5-HT2A, D3 and D2 receptors was determined using radioligand binding to cloned receptors selectively expressed in HEK-293 EBNA cells.
(§1) HEK-293 EBNA cells were transiently transfected with expression plasmids encoding for the human D2 or D3 dopamine- or for the human 5-HT2A serotonin receptor, respectively. The cells were harvested 48 h post-transfection, washed three times with cold PBS and stored at −80° C. prior to use. The pellet was suspended in cold 50 mM Tris-HCl buffer containing 10 mM EDTA (pH 7.4) and homogenized with a Polytron (Kinematica AG, Basel, Switzerland) for 20-30 sec at 12,000 rpm. After centrifugation at 48,000×g for 30 min at 4° C., the pellet was resuspended in cold 10 mM Tris-HCl buffer containing 0.1 mM EDTA (pH 7.4), homogenized, and centrifuged as above. This pellet was further resuspended in a smaller volume of ice cold 10 mM Tris-HCl buffer containing 0.1 mM EDTA (pH 7.4) and homogenized with a Polytron for 20-30 sec at 12,000 rpm. The protein content of this homogenate was determined with the Bio-Rad (Bradford) Protein Assay (Biorad Laboratories GmbH, München, Germany) according to the instructions of the manufacturer using gamma globulin as the standard. This homogenate was stored at −80° C. in aliquots and thawed immediately prior to use.
Aliquots of membrane preparations were thawed at RT, resuspended in assay buffer (D2, D3: 50 mM Tris-HCl, 120 mM NaCl, 5 mM MgCl2, 1 mM EDTA, 5 mM KCl, 1.5 mM CaCl2, pH=7.4; 5-HT2A: 50 mM Tris-HCl, 10 mM MgCl2, 1 mM EGTA, pH=7.4), homogenized with a Polytron for 20-30 sec at 12,000 rpm and adjusted to a final concentration of approximately 7.5 μg protein/well (D2, D3) and 15 μg protein/well (5-HT2A), respectively.
(§2) The binding affinity (Ki) of the compounds was determined using radioligand binding. Membranes were incubated in a total volume of 200 μl with a fixed concentration of radioligand (final concentration approximately 0.7 nM [^3H]-spiperone for D2, 0.5 nM [^3H]-spiperone for D3, and 1.1 nM [^3H]-ketanserin for 5-HT2A) and ten concentrations of test compound in ranging between 10 μM-0.1 nM for 1 h at RT. At the end of the incubation, the reaction mixtures were filtered on to unifilter 96-well white microplates with bonded GF/C filters (Packard BioScience, Zürich, Switzerland; preincubated for 1 h in 0.1% polyethylenimine (PEI) in assay buffer) with a Filtermate 196 harvester (Packard BioScience) and washed 3 times with cold assay buffer. The nonspecific binding was determined with equally composed reaction mixtures in the presence of 10 μM unlabelled spiperone. Per well 45 μl of Microscint 40 (Perkin Elmer, Schwerzenbach, Switzerland) was added, plates for sealed, shaken for 20 min and counted for 3 min on a Topcount Microplate Scintillation Counter (Canberra Packard SA, Zürich, Switzerland) with quenching correction.
(§3) The CPM value for each duplicate of a concentration of competing compound was averaged (y1), then the % specific binding was calculated according to the equation (((y1−non-specific)/(total binding−non-specific))×100). Graphs were plotted with the % specific binding using XLfit, a curve fitting program that iteratively plots the data using Levenburg Marquardt algorithm. The single site competition analysis equation used was y=A+((B−A)/(1+((x/C)^D))), where y is the % specific binding, A is the minimum y, B is the maximum y, C is the IC50, x is the log10 of the concentration of the competing compound and D is the slope of the curve (the Hill Coefficient). From these curves the IC50 (inhibition concentration at which 50% specific binding of the radioligand was displaced) and Hill coefficient were determined. The affinity constant (Ki) was calculated using the Cheng-Prusoff equation Ki=(IC50/1+([L]/Kd), where [L] is the concentration of radioligand and Kd is the dissociation constant of the radioligand at the receptor as determined by the saturation isotherm.

[2] = target: human D3 dopamine receptor (Homo sapiens (Human), UniProt P35462); assay: Radioligand binding ([3H]-spiperone) to cloned human D3 receptor expressed in HEK-293 EBNA cells; details: membranes of transfected HEK-293 EBNA cells, 0.5 nM [3H]-spiperone, 1 h at RT
Chain of human D3 dopamine receptor (P35462 whole entry): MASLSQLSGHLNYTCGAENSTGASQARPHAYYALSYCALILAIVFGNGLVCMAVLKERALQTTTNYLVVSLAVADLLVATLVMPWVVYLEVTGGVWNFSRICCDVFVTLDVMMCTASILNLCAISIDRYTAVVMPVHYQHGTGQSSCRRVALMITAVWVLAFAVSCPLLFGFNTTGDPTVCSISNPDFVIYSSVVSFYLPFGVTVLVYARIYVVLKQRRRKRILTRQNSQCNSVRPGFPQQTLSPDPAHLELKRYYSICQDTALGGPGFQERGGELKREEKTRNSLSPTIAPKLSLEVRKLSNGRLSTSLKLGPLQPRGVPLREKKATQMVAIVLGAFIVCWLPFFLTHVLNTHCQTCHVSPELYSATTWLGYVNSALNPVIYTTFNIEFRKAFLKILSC
Protocol: as §1, with “The pellet was suspended in cold 50 mM Tris-HCl buffer containing 10 mM EDTA (pH 7.4) and homogenized with a Polytron (Kinematica AG, Basel, Switzerland) for 20-30 sec at 12,000 rpm.” left out, “This pellet was further resuspended in a smaller volume of ice cold 10 mM Tris-HCl buffer containing 0.1 mM EDTA (pH 7.4) and homogenized with a Polytron for 20-30 sec at 12,000 rpm.” left out
as §2, §3

SMILES | Ki [1] [nM] | Ki [2] [nM]
N#CCCC(=O)N[C@H]1CC[C@H](CCN2CCC(c3noc4cc(Cl)ccc34)CC2)CC1 [Example 52, N-trans-(4-{2-[4-(6-Chloro-benzo[d]isoxazol-3-yl)-piperidin-1-yl]-ethyl}-cyclohexyl)-3-cyano-propionamide] | 15.6 | 8.77
O=C(N[C@H]1CC[C@H](CCN2CCC(c3noc4cc(F)ccc34)CC2)CC1)c1ccc(N2CCOCC2)nn1 [Example 4C, 6-Morpholin-4-yl-pyridazine-3-carboxylic acid-trans (4-{2-[4-(6-fluoro-benzo[d]isoxazol-3-yl)-piperidin-1-yl]-ethyl}-cyclohexyl)-amide] | 3.18 | 25.3
O=C(CC1CCC2(CC1)OCCO2)N[C@H]1CC[C@H](CCN2CCC(c3noc4cc(Cl)ccc34)CC2)CC1 [Example 36, N-trans (4-{2-[4-(6-Chloro-benzo[d]isoxazol-3-yl)-piperidin-1-yl]-ethyl}-cyclohexyl)-2-(1,4-dioxa-spiro[4.5]dec-8-yl)-acetamide] | 8.31 | 12.2
O=C(N[C@H]1CC[C@H](CCN2CCC(c3noc4cc(F)ccc34)CC2)CC1)c1ccc(N2CCS(=O)(=O)CC2)cc1 [Example 11, 4-(1,1-Dioxo-1,6-thiomorpholin-4-yl)-N-trans (4-{2-[4-(6-fluoro-benzo[d]isoxazol-3-yl)-piperidin-1-yl]-ethyl}-cyclohexyl)-benzamide] | 2.48 | 4.67
CO[C@@H]1CC[C@@H](CC(=O)N[C@H]2CC[C@H](CCN3CCC(c4noc5cc(F)c(F)cc45)CC3)CC2)C1 [Example 63, N-trans-(4-{2-[4-(5,6-Difluoro-benzo[d]isoxazol-3-yl)-piperidin-1-yl]-ethyl}-cyclohexyl)-2-((1R,3R)-3-methoxy-cyclopentyl)-acetamide] | 13.2 | 20
CO[C@H]1CC[C@H](CC(=O)N[C@H]2CC[C@H](CCN3CCC(c4noc5cc(F)c(F)cc45)CC3)CC2)CC1 [Example 64, N-trans-(4-{2-[4-(5,6-Difluoro-benzo[d]isoxazol-3-yl)-piperidin-1-yl]-ethyl}-cyclohexyl)-2-(4-methoxy-cyclohexyl)-acetamide] | 7.67 | 17.3
O=C(N[C@H]1CC[C@H](CCN2CCC(c3noc4cc(F)ccc34)CC2)CC1)c1ccc(Cl)cc1 [Example 10, 4-Chloro-N-trans (4-{2-[4-(6-fluoro-benzo[d]isoxazol-3-yl)-piperidin-1-yl]-ethyl}-cyclohexyl)-benzamide] | 2.67 | 3.5
O=C(CC1CCCO1)N[C@H]1CC[C@H](CCN2CCC(c3noc4cc(Cl)c(F)cc34)CC2)CC1 (stereo partly drawn) [Example 61, N-trans-(4-{2-[4-(6-Chloro-5-fluoro-benzo[d]isoxazol-3-yl)-piperidin-1-yl]-ethyl}-cyclohexyl)-2-(tetrahydro-furan-2-yl)-acetamide] | 31 | 17.7
O=C(N[C@H]1CC[C@H](CCN2CCC(c3noc4cc(Cl)ccc34)CC2)CC1)C(O)C(F)(F)F (stereo partly drawn) [Example 33, N-trans-(4-{2-[4-(6-Chloro-benzo[d]isoxazol-3-yl)-piperidin-1-yl]-ethyl}-cyclohexyl)-3,3,3-trifluoro-2-hydroxy-propionamide] | 21.9 | 11
COC(C)CC(=O)N[C@H]1CC[C@H](CCN2CCC(c3noc4cc(Cl)ccc34)CC2)CC1 (stereo partly drawn) [Example 43, N-trans(4-{2-[4-(6-Chloro-benzo[d]isoxazol-3-yl)-piperidin-1-yl]-ethyl}-cyclohexyl)-3-methoxy-butyramide] | 13 | 10
O=C(N[C@H]1CC[C@H](CCN2CCC(c3noc4ccc(F)cc34)CC2)CC1)c1ccc2c(c1)OCO2 [Example 30, Benzo[1,3]dioxole-5-carboxylic acid trans (4-{2-[4-(5-fluoro-benzo[d]isoxazol-3-yl)-piperidin-1-yl]-ethyl}-cyclohexyl)-amide] | 11.2 | 
O=C(CCO)N[C@H]1CC[C@H](CCN2CCC(c3noc4cc(F)c(F)cc34)CC2)CC1 [Example 68, N-trans-(4-{2-[4-(5,6-Difluoro-benzo[d]isoxazol-3-yl)-piperidin-1-yl]-ethyl}-cyclohexyl)-3-hydroxy-propionamide] | 24.8 | 11.7
COC(CC(=O)N[C@H]1CC[C@H](CCN2CCC(c3noc4cc(Cl)ccc34)CC2)CC1)OC [Example 37, N-trans-(4-{2-[4-(6-Chloro-benzo[d]isoxazol-3-yl)-piperidin-1-yl]-ethyl}-cyclohexyl)-3,3-dimethoxy-propionamide] | 13.7 | 9.03
COC[C@H]1CC[C@H](CC(=O)N[C@H]2CC[C@H](CCN3CCC(c4noc5cc(Cl)ccc45)CC3)CC2)CC1 [Example 44, N-trans-(4-{2-[4-(6-Chloro-benzo[d]isoxazol-3-yl)-piperidin-1-yl]-ethyl}-cyclohexyl)-2-trans (4-methoxymethyl-cyclohexyl)-acetamide] | 19 | 9
O=C(C[C@@H]1CCCCO1)N[C@H]1CC[C@H](CCN2CCC(c3noc4cc(Cl)ccc34)CC2)CC1 [Example 34A, N-trans (4-{2-[4-(6-Chloro-benzo[d]isoxazol-3-yl)-piperidin-1-yl]-ethyl}-cyclohexyl)-2-(R)-tetrahydro-pyran-2-yl-acetamide] | 13.7 | 
O=C(CC1CCCCO1)N[C@H]1CC[C@H](CCN2CCC(c3noc4cc(Cl)ccc34)CC2)CC1 (stereo partly drawn) [Example 34, N-trans (4-{2-[4-(6-Chloro-benzo[d]isoxazol-3-yl)-piperidin-1-yl]-ethyl}-cyclohexyl)-2-(tetrahydro-pyran-2-yl)-acetamide] | 5.83 | 
O=C(C[C@H]1CCCCO1)N[C@H]1CC[C@H](CCN2CCC(c3noc4cc(Cl)ccc34)CC2)CC1 [Example 34B, N-trans (4-{2-[4-(6-Chloro-benzo[d]isoxazol-3-yl)-piperidin-1-yl]-ethyl}-cyclohexyl)-2-(S)-tetrahydro-pyran-2-yl-acetamide] | 15.3 | 
O=C(N[C@H]1CC[C@H](CCN2CCC(c3noc4cc(F)ccc34)CC2)CC1)c1ccc(N2CCOCC2)cc1 [Example 4, N-trans-(4-{2-[4-(6-Fluoro-benzo[d]isoxazol-3-yl)-piperidin-1-yl]-ethyl}-cyclohexyl)-4-morpholin-4-yl-benzamide] | 9.52 | 
O=C(N[C@H]1CC[C@H](CCN2CCC(c3noc4cc(F)ccc34)CC2)CC1)c1ccnc(N2CCOCC2)c1 [Example 12, N-trans (4-{2-[4-(6-Fluoro-benzo[d]isoxazol-3-yl)-piperidin-1-yl]-ethyl}-cyclohexyl)-2-morpholin-4-yl-isonicotinamide] | 2.46 | 
